The values below come from ChEMBL document CHEMBL2069252, “Pyrazole diaminopyrimidines as dual inhibitors of KDR and Aurora B kinases” (Bioorg Med Chem Lett, 2012).

The source made the active and inactive calls. The calls are words filed in the database; no cut-off is given here.

The subject of data set [1] is Mus musculus. Briefly: Toxicity in mouse xenografted with human DOHH2 cells assessed as mortality at 10 mg/kg, ip administered Q7d for 3 weeks. The note with it: in vivo, 504 h. (In general: Xenograft models place foreign cells or tissue in a host animal.)
The test system of another data set is NCI-H1299. Briefly: Cell cycle arrest in human NCI-H1299 cells assessed as induction of polyploidy after 48 hrs by Hoechst staining-based fluorescence microscopic analysis. The class given is functional. The note with it: NCI-H1299, 48 h.
Another data set concerns the target Wee1-like protein kinase (Homo sapiens, UniProt P30291). Briefly: Inhibition of Wee1 by TR-FRET analysis. A general note: In TR-FRET formats the signal depends on donor and acceptor labels being close together.
Data set [2] has as its target T1, Protein kinase C epsilon type (Homo sapiens, UniProt Q02156).
T1 sequence (Q02156 whole entry): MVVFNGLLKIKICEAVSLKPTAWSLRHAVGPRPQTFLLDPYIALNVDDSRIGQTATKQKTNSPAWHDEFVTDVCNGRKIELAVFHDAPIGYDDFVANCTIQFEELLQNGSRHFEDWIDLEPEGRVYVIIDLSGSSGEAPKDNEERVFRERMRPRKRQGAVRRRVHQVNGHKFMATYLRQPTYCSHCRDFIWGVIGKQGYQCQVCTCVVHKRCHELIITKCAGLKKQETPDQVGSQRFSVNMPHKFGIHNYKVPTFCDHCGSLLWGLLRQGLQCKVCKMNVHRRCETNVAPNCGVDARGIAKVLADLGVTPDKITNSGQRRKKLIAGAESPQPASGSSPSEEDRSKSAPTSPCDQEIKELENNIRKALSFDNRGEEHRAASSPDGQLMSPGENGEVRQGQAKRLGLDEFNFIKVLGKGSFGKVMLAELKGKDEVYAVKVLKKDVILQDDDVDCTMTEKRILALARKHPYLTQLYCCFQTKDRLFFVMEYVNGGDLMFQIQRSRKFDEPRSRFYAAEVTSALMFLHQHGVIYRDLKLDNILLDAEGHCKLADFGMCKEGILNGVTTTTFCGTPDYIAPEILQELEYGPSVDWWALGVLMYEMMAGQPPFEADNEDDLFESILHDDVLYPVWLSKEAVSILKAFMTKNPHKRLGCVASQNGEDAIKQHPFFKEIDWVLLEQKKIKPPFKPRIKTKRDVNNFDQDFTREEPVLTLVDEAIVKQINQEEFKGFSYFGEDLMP
Briefly: Inhibition of PKCepsilon by TR-FRET analysis.

The target of data set [3] is Platelet-derived growth factor receptor alpha (Homo sapiens, UniProt P16234). Briefly: Inhibition of PDGFRalpha by TR-FRET analysis.
Chain of Platelet-derived growth factor receptor alpha (P16234 whole entry): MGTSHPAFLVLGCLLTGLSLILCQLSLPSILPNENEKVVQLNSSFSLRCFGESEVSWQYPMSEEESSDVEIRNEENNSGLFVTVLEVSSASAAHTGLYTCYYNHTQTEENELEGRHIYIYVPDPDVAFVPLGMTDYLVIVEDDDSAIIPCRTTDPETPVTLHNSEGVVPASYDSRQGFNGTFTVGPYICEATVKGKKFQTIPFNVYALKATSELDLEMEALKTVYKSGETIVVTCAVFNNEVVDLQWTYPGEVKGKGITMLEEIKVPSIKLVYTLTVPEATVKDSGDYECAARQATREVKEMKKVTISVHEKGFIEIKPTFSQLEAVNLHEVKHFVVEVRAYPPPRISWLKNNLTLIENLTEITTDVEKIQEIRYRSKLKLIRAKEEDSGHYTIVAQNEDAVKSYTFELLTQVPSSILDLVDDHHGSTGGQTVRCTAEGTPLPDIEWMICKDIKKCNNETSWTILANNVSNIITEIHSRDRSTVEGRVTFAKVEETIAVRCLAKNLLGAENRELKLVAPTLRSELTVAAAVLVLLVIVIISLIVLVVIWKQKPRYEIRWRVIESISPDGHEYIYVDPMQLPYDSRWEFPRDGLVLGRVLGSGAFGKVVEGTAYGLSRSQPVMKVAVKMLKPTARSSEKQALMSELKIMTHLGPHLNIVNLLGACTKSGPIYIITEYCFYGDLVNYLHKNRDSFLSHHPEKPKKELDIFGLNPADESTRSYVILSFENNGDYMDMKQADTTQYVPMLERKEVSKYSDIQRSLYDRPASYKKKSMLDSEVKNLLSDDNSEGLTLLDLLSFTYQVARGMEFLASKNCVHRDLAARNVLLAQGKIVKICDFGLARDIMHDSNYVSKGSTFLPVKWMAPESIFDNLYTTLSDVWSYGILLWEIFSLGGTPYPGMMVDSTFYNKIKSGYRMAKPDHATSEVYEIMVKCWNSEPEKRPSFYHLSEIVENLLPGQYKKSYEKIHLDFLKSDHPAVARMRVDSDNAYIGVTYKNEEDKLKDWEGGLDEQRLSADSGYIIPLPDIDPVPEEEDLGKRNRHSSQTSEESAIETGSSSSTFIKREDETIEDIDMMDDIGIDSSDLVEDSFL
In data set [4] the target is T2, Receptor-type tyrosine-protein kinase FLT3 (Homo sapiens, UniProt P36888).
T2 sequence (P36888 whole entry): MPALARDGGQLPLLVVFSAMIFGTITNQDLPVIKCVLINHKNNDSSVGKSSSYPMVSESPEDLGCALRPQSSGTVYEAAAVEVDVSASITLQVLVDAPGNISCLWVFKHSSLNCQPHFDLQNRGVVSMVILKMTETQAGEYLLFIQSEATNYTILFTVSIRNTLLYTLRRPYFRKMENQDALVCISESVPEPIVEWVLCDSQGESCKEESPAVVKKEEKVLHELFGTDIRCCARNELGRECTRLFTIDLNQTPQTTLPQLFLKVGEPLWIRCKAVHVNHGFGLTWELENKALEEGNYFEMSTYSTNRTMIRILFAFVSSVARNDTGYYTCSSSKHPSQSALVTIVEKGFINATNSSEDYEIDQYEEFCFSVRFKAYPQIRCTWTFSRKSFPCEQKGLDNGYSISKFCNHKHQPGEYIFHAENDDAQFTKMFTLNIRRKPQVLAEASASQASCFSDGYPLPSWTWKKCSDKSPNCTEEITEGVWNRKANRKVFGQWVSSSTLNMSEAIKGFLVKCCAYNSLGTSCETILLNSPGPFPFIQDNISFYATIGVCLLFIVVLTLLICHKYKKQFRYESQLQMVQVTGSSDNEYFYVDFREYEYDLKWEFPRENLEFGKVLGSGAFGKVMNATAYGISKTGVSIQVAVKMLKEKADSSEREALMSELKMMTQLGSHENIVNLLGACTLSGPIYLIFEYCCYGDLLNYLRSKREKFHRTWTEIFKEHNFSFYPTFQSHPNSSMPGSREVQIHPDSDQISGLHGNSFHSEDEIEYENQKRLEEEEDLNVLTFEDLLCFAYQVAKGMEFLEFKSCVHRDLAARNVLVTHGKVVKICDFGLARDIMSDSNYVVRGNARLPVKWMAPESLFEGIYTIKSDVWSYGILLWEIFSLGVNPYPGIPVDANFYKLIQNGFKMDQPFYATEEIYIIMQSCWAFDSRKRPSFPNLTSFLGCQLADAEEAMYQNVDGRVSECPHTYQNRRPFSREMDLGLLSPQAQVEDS
Briefly: Inhibition of Flt3 by TR-FRET analysis.

The next data set has as its target T3, Aurora kinase A (Homo sapiens, UniProt O14965).
T3 sequence (O14965 whole entry): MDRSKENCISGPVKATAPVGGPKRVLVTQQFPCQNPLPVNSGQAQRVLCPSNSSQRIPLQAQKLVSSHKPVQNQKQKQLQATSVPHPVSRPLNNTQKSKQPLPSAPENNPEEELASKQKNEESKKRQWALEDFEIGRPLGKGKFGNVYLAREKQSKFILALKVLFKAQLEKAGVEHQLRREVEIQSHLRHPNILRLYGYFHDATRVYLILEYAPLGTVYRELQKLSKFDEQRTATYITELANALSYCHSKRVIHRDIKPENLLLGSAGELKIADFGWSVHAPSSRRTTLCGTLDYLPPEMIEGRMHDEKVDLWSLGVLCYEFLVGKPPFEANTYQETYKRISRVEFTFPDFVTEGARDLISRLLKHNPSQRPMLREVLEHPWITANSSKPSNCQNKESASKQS
Briefly: Inhibition of Aurora A by TR-FRET analysis.

The test system of data set [5] is Mus musculus. Briefly: Toxicity in mouse xenografted with human DOHH2 cells assessed as weight loss at 10 mg/kg, ip administered Q7d for 3 weeks. The note with it: in vivo, 504 h.
The test system of another data set is DOHH-2. Conditions: Homo sapiens.
Data set [6] concerns the target Glycogen synthase kinase-3 beta (Homo sapiens, UniProt P49841). Briefly: Inhibition of GSK3beta by TR-FRET analysis.
Data set [7] has as its target Fibroblast growth factor receptor 2 (Homo sapiens, UniProt P21802). Briefly: Inhibition of FGFR2 by TR-FRET analysis.

Chain of Glycogen synthase kinase-3 beta (P49841 whole entry): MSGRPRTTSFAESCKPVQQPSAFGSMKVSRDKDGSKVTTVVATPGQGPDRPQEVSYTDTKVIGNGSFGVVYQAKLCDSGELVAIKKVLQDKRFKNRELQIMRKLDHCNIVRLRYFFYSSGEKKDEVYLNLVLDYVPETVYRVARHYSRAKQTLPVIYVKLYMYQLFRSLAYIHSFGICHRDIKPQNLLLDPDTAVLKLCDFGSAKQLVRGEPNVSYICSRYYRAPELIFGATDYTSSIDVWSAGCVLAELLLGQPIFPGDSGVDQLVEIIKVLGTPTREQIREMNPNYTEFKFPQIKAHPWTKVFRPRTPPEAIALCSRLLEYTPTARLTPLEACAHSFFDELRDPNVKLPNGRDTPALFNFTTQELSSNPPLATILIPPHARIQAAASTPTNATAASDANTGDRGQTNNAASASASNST
Chain of Wee1-like protein kinase (P30291 whole entry): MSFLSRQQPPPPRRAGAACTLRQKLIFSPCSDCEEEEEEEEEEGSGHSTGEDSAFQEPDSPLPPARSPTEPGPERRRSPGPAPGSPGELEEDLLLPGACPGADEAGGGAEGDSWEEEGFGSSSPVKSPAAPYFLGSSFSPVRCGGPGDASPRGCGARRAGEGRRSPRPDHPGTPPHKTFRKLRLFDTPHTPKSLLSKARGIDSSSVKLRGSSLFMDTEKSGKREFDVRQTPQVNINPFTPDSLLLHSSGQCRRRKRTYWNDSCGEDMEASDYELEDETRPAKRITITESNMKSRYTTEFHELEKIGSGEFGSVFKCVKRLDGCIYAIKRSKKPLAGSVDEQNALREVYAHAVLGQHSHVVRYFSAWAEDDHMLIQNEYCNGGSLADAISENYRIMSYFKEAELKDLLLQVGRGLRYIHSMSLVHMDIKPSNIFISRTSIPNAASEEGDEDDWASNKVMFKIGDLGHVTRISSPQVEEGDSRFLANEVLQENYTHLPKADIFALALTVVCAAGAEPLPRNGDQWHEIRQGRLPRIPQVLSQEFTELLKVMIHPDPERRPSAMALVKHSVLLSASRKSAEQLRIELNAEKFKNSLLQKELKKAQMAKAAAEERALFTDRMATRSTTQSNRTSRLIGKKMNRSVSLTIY
Chain of Fibroblast growth factor receptor 2 (P21802 whole entry): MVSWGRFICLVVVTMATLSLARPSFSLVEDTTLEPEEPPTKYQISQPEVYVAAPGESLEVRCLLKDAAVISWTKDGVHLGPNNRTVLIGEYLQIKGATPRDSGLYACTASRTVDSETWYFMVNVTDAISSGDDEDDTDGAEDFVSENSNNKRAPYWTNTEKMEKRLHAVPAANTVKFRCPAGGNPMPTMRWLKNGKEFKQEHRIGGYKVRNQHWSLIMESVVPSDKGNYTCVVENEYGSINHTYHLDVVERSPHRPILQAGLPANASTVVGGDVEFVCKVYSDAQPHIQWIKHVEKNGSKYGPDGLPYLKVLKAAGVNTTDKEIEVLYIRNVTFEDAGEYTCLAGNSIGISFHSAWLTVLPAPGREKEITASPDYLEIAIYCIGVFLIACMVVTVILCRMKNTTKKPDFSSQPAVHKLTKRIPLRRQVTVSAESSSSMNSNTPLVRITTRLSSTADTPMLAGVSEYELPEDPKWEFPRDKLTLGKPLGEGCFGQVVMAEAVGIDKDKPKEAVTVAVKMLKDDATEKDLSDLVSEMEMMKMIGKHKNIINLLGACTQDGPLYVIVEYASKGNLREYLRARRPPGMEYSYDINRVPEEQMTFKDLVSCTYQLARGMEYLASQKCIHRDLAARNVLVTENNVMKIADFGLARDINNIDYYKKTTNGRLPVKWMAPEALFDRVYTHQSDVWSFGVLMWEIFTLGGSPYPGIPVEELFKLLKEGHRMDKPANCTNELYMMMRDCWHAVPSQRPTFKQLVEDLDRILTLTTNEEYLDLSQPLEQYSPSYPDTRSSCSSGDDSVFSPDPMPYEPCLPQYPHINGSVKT
Description for DOHH-2: Antitumor activity against human DOHH2 cells xenografted in mouse tumor model assessed as tumor growth inhibition at 10 mg/kg, ip administered Q7d for 3 weeks

On to `Cn1cc(Nc2ncc(Br)c(N[C@H]3[C@@H](C(N)=O)[C@@H]4C=C[C@H]3C4)n2)cn1`, for which the Activity result in the data set with Mus musculus [1] and in the data set on Mus musculus [5] was “Toxic” throughout. The EC15 in the data set on NCI-H1299 is under 3 nM. The IC50 (commonly the concentration that inhibits the measured activity by half) against Wee1-like protein kinase came out at 2800 nM; in data set [2], 82 nM; in [3] it was 1 nM; in data set [4], 1 nM; on Aurora kinase A, 3 nM; in data set [6], 34 nM. The molecule also gave an IC50 in [7] of 2 nM. In the data set with DOHH-2, the TGI result was “Active”.
